Measured values published in the NIST ThermoML archive (doi:10.1016/j.fluid.2016.10.027).
Numbers after ± are expanded uncertainties.

How the values were obtained:
[1] = 101.33 kPa, Liquid, Vibrating tube method
[2] = refractive index (Na D-line) (dimensionless); conditions: 101.33 kPa, Liquid, Standard Abbe refractometry

mass density ([1]; 298.15 K) | refractive index ([2]; 298.15 K) | mass density ([1]; 293.15 K) | refractive index ([2]; 293.15 K) | SMILES
804 ± 2 kg/m3 | 1.3962 ± 0.0005 | – | – | CCC(C)O (configuration not stated) [butan-2-ol]
1044.6 ± 2 kg/m3 | 1.3703 ± 0.0005 | – | – | CC(=O)O [acetic acid]
– | 1.332 ± 0.0005 | – | – | O [water]
– | – | 871 ± 2 kg/m3 | 1.3876 ± 0.0006 | CCC(C)OC(C)=O (configuration not stated) [1-methylpropyl ethanoate]
